Tested on: HeLa cells
Assay: LNP cellular uptake / eGFP mRNA expression by FACS flow cytometry
Type: cell-based, Human
Conditions: eGFP mRNA cargo
Experimental: LNP cellular uptake for the LNP formulations in Table 10 was tested. HeLa cells (Human epithelial cells, ATCC) were seeded at 0.05×10^6 cells per well in 1000 μL DMEM media (Dulbecco's Modified Eagle Medium, GIBCO) containing 10% FBS (GIBCO) and 5% penicillin streptomycin (GIBCO) in 24-well plate. The LNP formulations of Table 10 containing the eGFP mRNA were prepared with a total treatment dose of 250 ng and 1000 ng eGFP mRNA per well in triplicates. The cells were incubated for 24 h at 37° C. Cells were then trypsinized and resuspended in PBS and centrifuged at 200 g for 5 min. The supernatant was removed, and the pelleted cells were redispersed in 500 μL of PBS+2% FBS per well and transferred to FACS tubes and read on a flow cytometry analyzer (BD FACSCanto™ II). The data presented are the mean fluorescent intensity of the signals from each cell treatment analyzed. For transfection efficiency, treated cells were gated for EGFP expression, and the data presented are the percentage of cells analyzed with higher EGFP expression than untreated cells. […] HeLa cells were treated with the various formulations for 24 hours before using fluorescence activated cell sorting (FACS) flow cytometry to quantify eGFP expression in the treated cells. The higher the mean fluorescence intensity, the greater the expression of eGFP, ant therefore, the greater the transfection efficiency.

SMILES: CCCCCCCCCCCOC(=O)CCCCCN(CCO)CCCCCCCC(=O)OC(CCCCCCCC)CCCCCCCC [SM-102]
- efficacy (transfection), findings from all the experiments of Example 2: more efficacious ionizable lipid than D-Lin-MC3-DMA

Source: US20260165982A1, “COMPOSITIONS AND METHODS FOR DELIVERY OF NUCLEIC ACID THERAPEUTICS” (Entrada Therapeutics, Inc., priority 2022, published 2026)
